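Where inhibition never reached the appropriate level, the endpoint shown equals the highest concentration tested. Otherwise, values were interpolated linearly from a five-concentration, 48-hour dose response in 96-well plates. At the GI50, growth is halved. At the TGI there is no net growth.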
Tests used:
Experiment in all cases: inhibition of tumour cell growth, NCI panel, 48 h
786-0 renal = system: 786-0 renal
A498 renal = system: A498 renal
A549 NSCLC = system: A549 NSCLC
ACHN renal = system: ACHN renal
BT-549 breast = system: BT-549 breast
CAKI-1 renal = system: CAKI-1 renal
CCRF-CEM leukemia = system: CCRF-CEM leukemia
COLO 205 colon = system: COLO 205 colon
DU-145 prostate = system: DU-145 prostate
EKVX NSCLC = system: EKVX NSCLC
HCC-2998 colon = system: HCC-2998 colon
HCT-116 colon = system: HCT-116 colon
HCT-15 colon = system: HCT-15 colon
HL-60(TB) leukemia = system: HL-60(TB) leukemia
HOP-62 NSCLC = system: HOP-62 NSCLC
HOP-92 NSCLC = system: HOP-92 NSCLC
HS 578T breast = system: HS 578T breast
HT29 colon = system: HT29 colon
IGROV1 ovarian = system: IGROV1 ovarian
K-562 leukemia = system: K-562 leukemia
KM12 colon = system: KM12 colon
LOX IMVI melanoma = system: LOX IMVI melanoma
M14 melanoma = system: M14 melanoma
MALME-3M melanoma = system: MALME-3M melanoma
MCF7 breast = system: MCF7 breast
MDA-MB-231 breast = system: MDA-MB-231 breast
MDA-MB-435 = system: MDA-MB-435
MOLT-4 leukemia = system: MOLT-4 leukemia
NCI-H226 lung = system: NCI-H226 lung
NCI-H23 lung = system: NCI-H23 lung
NCI-H460 lung = system: NCI-H460 lung
NCI-H522 lung = system: NCI-H522 lung
NCI/ADR-RES ovarian = system: NCI/ADR-RES ovarian
OVCAR-3 ovarian = system: OVCAR-3 ovarian
OVCAR-4 ovarian = system: OVCAR-4 ovarian
OVCAR-5 ovarian = system: OVCAR-5 ovarian
OVCAR-8 ovarian = system: OVCAR-8 ovarian
PC-3 prostate = system: PC-3 prostate
RPMI-8226 leukemia = system: RPMI-8226 leukemia
RXF 393 renal = system: RXF 393 renal
SF-268 CNS = system: SF-268 CNS
SF-295 CNS = system: SF-295 CNS
SF-539 CNS = system: SF-539 CNS
SK-MEL-2 melanoma = system: SK-MEL-2 melanoma
SK-MEL-28 melanoma = system: SK-MEL-28 melanoma
SK-MEL-5 melanoma = system: SK-MEL-5 melanoma
SK-OV-3 ovarian = system: SK-OV-3 ovarian
SN12C renal = system: SN12C renal
SNB-19 CNS = system: SNB-19 CNS
SNB-75 CNS = system: SNB-75 CNS
SR leukemia = system: SR leukemia
SW-620 colon = system: SW-620 colon
T-47D breast = system: T-47D breast
TK-10 renal = system: TK-10 renal
U251 CNS = system: U251 CNS
UACC-257 melanoma = system: UACC-257 melanoma
UACC-62 melanoma = system: UACC-62 melanoma
UO-31 renal = system: UO-31 renal

CN1CCN(CCCOc2ccc3nc(Nc4ccc(Cl)c(C(F)(F)F)c4)ccc3c2)CC1
GI50 (786-0 renal): 13.9 µM
TGI (786-0 renal): 28.2 µM
GI50 (A498 renal): 13.7 µM
TGI (A498 renal): 28.8 µM
GI50 (A549 NSCLC): 14.7 µM
TGI (A549 NSCLC): 28.9 µM
GI50 (ACHN renal): 12.5 µM
TGI (ACHN renal): 32 µM
GI50 (BT-549 breast): 14.2 µM
TGI (BT-549 breast): 27.7 µM
GI50 (CAKI-1 renal): 14.9 µM
TGI (CAKI-1 renal): 28.4 µM
GI50 (CCRF-CEM leukemia): 6 µM
TGI (CCRF-CEM leukemia): 22.1 µM
GI50 (COLO 205 colon): 9.79 µM
TGI (COLO 205 colon): 24.4 µM
GI50 (DU-145 prostate): 11.9 µM
TGI (DU-145 prostate): 24.3 µM
GI50 (EKVX NSCLC): 15 µM
TGI (EKVX NSCLC): 29.1 µM
GI50 (HCC-2998 colon): 14.8 µM
TGI (HCC-2998 colon): 30.4 µM
GI50 (HCT-116 colon): 8.44 µM
TGI (HCT-116 colon): 21.7 µM
GI50 (HCT-15 colon): 3.66 µM
TGI (HCT-15 colon): 13.3 µM
GI50 (HL-60(TB) leukemia): 13.9 µM
TGI (HL-60(TB) leukemia): 31.1 µM
GI50 (HOP-62 NSCLC): 14.9 µM
TGI (HOP-62 NSCLC): 29.6 µM
GI50 (HOP-92 NSCLC): 5.46 µM
TGI (HOP-92 NSCLC): 18.8 µM
GI50 (HS 578T breast): 12.5 µM
TGI (HS 578T breast): 32.1 µM
GI50 (HT29 colon): 2.67 µM
TGI (HT29 colon): 8.38 µM
GI50 (IGROV1 ovarian): 13.2 µM
TGI (IGROV1 ovarian): 30.1 µM
GI50 (K-562 leukemia): 2.4 µM
TGI (K-562 leukemia): 5.78 µM
GI50 (KM12 colon): 9.51 µM
TGI (KM12 colon): 23.4 µM
GI50 (LOX IMVI melanoma): 4.07 µM
TGI (LOX IMVI melanoma): 15.9 µM
GI50 (M14 melanoma): 12.7 µM
TGI (M14 melanoma): 26.1 µM
GI50 (MALME-3M melanoma): 11.3 µM
TGI (MALME-3M melanoma): 28.4 µM
GI50 (MCF7 breast): 4.94 µM
TGI (MCF7 breast): 22 µM
GI50 (MDA-MB-231 breast): 7.59 µM
TGI (MDA-MB-231 breast): 23.1 µM
GI50 (MDA-MB-435): 11.7 µM
TGI (MDA-MB-435): 24.2 µM
GI50 (MOLT-4 leukemia): 8.2 µM
TGI (MOLT-4 leukemia): 24.3 µM
GI50 (NCI-H226 lung): 22.2 µM
TGI (NCI-H226 lung): 57.1 µM
GI50 (NCI-H23 lung): 13.9 µM
TGI (NCI-H23 lung): 29.3 µM
GI50 (NCI-H460 lung): 16.4 µM
TGI (NCI-H460 lung): 39.1 µM
GI50 (NCI-H522 lung): 14.1 µM
TGI (NCI-H522 lung): 28.1 µM
GI50 (NCI/ADR-RES ovarian): 14.7 µM
TGI (NCI/ADR-RES ovarian): 33.2 µM
GI50 (OVCAR-3 ovarian): 12.5 µM
TGI (OVCAR-3 ovarian): 25.8 µM
GI50 (OVCAR-4 ovarian): 12.7 µM
TGI (OVCAR-4 ovarian): 26.4 µM
GI50 (OVCAR-5 ovarian): 17 µM
TGI (OVCAR-5 ovarian): 35.4 µM
GI50 (OVCAR-8 ovarian): 16.4 µM
TGI (OVCAR-8 ovarian): 32.4 µM
GI50 (PC-3 prostate): 13.3 µM
TGI (PC-3 prostate): 27.1 µM
GI50 (RPMI-8226 leukemia): 14.3 µM
TGI (RPMI-8226 leukemia): 34.2 µM
GI50 (RXF 393 renal): 12.7 µM
TGI (RXF 393 renal): 28 µM
GI50 (SF-268 CNS): 14.1 µM
TGI (SF-268 CNS): 30 µM
GI50 (SF-295 CNS): 14.3 µM
TGI (SF-295 CNS): 29.7 µM
GI50 (SF-539 CNS): 13.8 µM
TGI (SF-539 CNS): 33.3 µM
GI50 (SK-MEL-2 melanoma): 16.5 µM
TGI (SK-MEL-2 melanoma): 31.6 µM
GI50 (SK-MEL-28 melanoma): 13.8 µM
TGI (SK-MEL-28 melanoma): 29.2 µM
GI50 (SK-MEL-5 melanoma): 15.1 µM
TGI (SK-MEL-5 melanoma): 29.1 µM
GI50 (SK-OV-3 ovarian): 18.2 µM
TGI (SK-OV-3 ovarian): 33 µM
GI50 (SN12C renal): 13.8 µM
TGI (SN12C renal): 30.2 µM
GI50 (SNB-19 CNS): 16.2 µM
TGI (SNB-19 CNS): 34.5 µM
GI50 (SNB-75 CNS): 7.09 µM
TGI (SNB-75 CNS): 20.5 µM
GI50 (SR leukemia): 2.7 µM
TGI (SR leukemia): 10.7 µM
GI50 (SW-620 colon): 8.97 µM
TGI (SW-620 colon): 22.1 µM
GI50 (T-47D breast): 17.6 µM
TGI (T-47D breast): 37.3 µM
GI50 (TK-10 renal): 18.3 µM
TGI (TK-10 renal): 32.8 µM
GI50 (U251 CNS): 12.5 µM
TGI (U251 CNS): 26.2 µM
GI50 (UACC-257 melanoma): 18.8 µM
TGI (UACC-257 melanoma): 33.4 µM
GI50 (UACC-62 melanoma): 16.4 µM
TGI (UACC-62 melanoma): 31.7 µM
GI50 (UO-31 renal): 14.5 µM
TGI (UO-31 renal): 29.4 µM
